Source: US20060045953A1 (priority 2004, published 2006)

Experiments:
[1] = biological target: T1, hT1R1/hT1R3 umami receptor (Homo sapiens, UniProt Q7RTX0+Q7RTX1); assay: In vitro hT1R1/hT1R3 umami taste receptor activation assay (FLIPR, dose response); assay type: cell-based; conditions: read-out: EC50 for activation of a hT1R1/hT1R3 umami receptor expressed in an HEK293 cell line
T1 construct: expressed in transfected cells; host or cells: HEK293 derivative stably expressing Gα15, clone I-17, expression induced with mifepristone
T1 sequence (Q7RTX1 21-841): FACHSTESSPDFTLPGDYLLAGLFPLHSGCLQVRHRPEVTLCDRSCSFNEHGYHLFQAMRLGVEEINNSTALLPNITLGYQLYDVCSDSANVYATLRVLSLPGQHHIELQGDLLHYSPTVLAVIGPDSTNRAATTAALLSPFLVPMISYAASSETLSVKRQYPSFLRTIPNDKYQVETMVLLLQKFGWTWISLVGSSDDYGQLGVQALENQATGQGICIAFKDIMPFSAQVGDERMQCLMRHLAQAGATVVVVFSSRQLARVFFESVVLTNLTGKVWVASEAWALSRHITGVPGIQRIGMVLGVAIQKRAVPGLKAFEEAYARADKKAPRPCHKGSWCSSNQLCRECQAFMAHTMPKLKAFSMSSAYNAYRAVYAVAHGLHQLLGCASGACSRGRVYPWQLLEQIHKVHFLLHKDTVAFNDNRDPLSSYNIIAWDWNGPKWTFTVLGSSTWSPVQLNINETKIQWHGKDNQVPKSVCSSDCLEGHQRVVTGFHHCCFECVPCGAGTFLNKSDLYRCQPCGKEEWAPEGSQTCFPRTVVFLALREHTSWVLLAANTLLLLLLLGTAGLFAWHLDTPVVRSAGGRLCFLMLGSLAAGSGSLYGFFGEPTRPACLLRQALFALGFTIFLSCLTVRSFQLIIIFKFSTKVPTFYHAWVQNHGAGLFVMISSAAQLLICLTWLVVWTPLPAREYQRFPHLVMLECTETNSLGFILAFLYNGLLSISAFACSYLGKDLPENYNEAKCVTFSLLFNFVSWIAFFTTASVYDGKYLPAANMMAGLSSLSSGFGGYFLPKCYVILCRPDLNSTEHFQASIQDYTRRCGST
T1 sequence (Q7RTX0 21-852): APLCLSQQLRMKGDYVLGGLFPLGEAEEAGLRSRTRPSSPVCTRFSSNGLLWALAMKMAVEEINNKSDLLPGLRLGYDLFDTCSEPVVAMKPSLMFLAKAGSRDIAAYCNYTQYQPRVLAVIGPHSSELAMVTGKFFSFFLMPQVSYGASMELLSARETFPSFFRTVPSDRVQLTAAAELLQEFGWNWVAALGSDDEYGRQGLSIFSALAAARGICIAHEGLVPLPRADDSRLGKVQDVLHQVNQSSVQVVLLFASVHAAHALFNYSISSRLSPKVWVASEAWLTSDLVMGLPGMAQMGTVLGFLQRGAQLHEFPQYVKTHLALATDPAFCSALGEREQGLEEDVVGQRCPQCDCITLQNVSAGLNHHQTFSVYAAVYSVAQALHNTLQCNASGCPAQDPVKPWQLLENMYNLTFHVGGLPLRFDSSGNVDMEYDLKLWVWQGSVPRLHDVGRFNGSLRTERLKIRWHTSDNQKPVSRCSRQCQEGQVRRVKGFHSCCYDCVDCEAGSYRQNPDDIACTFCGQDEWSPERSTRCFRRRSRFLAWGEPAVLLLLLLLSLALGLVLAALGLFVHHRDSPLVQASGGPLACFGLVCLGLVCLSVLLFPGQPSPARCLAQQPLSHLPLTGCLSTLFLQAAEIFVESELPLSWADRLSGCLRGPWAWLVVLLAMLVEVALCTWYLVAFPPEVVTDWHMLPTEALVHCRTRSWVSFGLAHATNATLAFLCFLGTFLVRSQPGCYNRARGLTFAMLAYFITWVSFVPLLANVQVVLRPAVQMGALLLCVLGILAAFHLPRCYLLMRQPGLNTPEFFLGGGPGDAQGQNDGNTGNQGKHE

[2] = system: human panelists; assay: Umami/savory flavor experiments using human panelists (trained panel, difference from reference); assay type: in vivo; conditions: savory taste; for Taste Data: concentration of cpd that with 12 mM MSG is as strong as 12 mM MSG + 100 μM IMP: aqueous solution with 12 mM MSG; for Taste Data: concentration of cpd (alone) as strong as 12 mM MSG: without MSG
Protocol: General Panelist Selection: Basic screening of sensory taste testers: Potential panelists were tested for their abilities to rank and rate intensities of solutions representing the five basic tastes. Panelists ranked and rated intensity of five different concentrations of each of the five following compounds: sucrose (sweet), sodium chloride (salty), citric acid (sour), caffeine (bitter), and monosodium glutamate (savory). In order to be selected for participation in testing, panelists needed to correctly rank and rate samples for intensity, with a reasonable number of errors. […]
Trained Panelist Selection: A trained expert panel was used to further evaluate compounds that had been tested with the preliminary taste test.
Panelists for the trained panel were selected from the larger group of qualifying taste panelists. Panelists were further trained on savory taste by ranking and rating experiments using MSG and IMP combinations. Panelists completed a series of ranking, rating, and difference from reference tests with savory solutions. In ranking and rating experiments, panelists evaluated easy MSG concentrations (0, 6, 18, 36 mM) and more difficult MSG concentrations (3, 6, 12, 18 mM MSG) in water.
Compound testing with Trained Panel: Compounds tested by the trained panel were evaluated in difference from reference experiments. […] Test samples were solutions with varying amounts of MSG, IMP, and the compound. Typically, each session compares the reference sample to numerous test samples. […] Compounds were tested against the reference in samples with and without 12 mM MSG. All samples were presented in 10 ml volumes at room temperature. Two sessions were completed for each compound tested to evaluate panel reproducibility.

[3] = biological target: T2, hT1R2/hT1R3 sweet receptor (Homo sapiens, UniProt Q7RTX0+Q8TE23); assay: In vitro hT1R2/hT1R3 sweet taste receptor activation assay (FLIPR, dose response); assay type: cell-based; conditions: read-out: EC50 for activation of a hT1R2/hT1R3 sweet receptor expressed in an HEK293 cell line
T2 construct: expressed in transfected cells; host or cells: HEK293 derivative stably expressing Gα15, clone S-9
T2 sequence (Q8TE23 20-839): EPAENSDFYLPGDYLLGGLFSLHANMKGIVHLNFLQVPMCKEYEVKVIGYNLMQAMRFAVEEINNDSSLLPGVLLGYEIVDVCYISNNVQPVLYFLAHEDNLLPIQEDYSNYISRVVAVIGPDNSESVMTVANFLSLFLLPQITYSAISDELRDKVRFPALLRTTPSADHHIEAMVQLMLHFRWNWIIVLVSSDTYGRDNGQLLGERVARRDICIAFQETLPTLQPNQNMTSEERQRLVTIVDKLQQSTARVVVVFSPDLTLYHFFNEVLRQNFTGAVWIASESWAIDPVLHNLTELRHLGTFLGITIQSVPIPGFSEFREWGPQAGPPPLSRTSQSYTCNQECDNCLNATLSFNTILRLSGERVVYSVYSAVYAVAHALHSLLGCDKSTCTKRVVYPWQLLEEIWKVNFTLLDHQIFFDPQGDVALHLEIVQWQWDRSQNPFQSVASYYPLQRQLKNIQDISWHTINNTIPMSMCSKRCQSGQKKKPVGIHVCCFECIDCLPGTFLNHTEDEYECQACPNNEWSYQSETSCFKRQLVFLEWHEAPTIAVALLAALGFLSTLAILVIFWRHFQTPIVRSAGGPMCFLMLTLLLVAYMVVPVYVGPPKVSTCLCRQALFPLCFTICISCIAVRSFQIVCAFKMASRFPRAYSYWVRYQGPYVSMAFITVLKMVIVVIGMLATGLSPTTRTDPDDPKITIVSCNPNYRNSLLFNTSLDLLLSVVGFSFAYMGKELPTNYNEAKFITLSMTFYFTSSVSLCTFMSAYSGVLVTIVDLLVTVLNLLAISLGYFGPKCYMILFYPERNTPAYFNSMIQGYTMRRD
T2 sequence (Q7RTX0 21-852): T1 sequence (Q7RTX0 21-852)
Outline: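 S-9 cells expressing hT1R2/hT1R3, loaded with 4 µM Fluo-3AM 1 h at room temperature. Calcium response on FLIPR at room temperature in D-PBS, with 10 concentrations from 60 nM to 30 µM in duplicate.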

| Structure (SMILES) | EC50 [1] [nM] | melting point [°C] | EC50 [3] [nM] | Taste Data: concentration of cpd that with 12 mM MSG is as strong as 12 mM MSG + 100 μM IMP [2] | Taste Data: concentration of cpd (alone) as strong as 12 mM MSG [2] |
| --- | --- | --- | --- | --- | --- |
| CCCC(CCC)NC(=O)c1ccc2c(c1)OCO2 [Example 1, N-(heptan-4-yl)benzo[d][1,3]dioxole-5-carboxamide] | 200 | – | – | 12 mM MSG + 3 μM cpd as strong as | – |
| COC(=O)[C@@H](CC(C)C)NC(=O)c1ccc2c(c1)OCO2 [Example 6, (R)-methyl 2-(benzo[d][1,3]dioxole-6-carboxamido)-4-methylpentanoate] | 340 | – | – | 12 mM MSG + 10 μM cpd as strong as | – |
| COC(=O)[C@@H](CC(C)C)NC(=O)c1cc(C)c(C)o1 [Example 98, (R)-methyl 2-(2,3-dimethylfuran-5-carboxamido)-4-methylpentanoate] | 590 | – | – | 12 mM MSG + 10 μM cpd as strong as | – |
| COc1ccc(C(=O)N[C@H]2CCc3ccccc32)cc1C [Example 121-1, (S)-N-(2,3-Dihydro-1H-inden-1-yl)-4-methoxy-3-methylbenzamide] | 80 | – | – | 12 mM MSG + 1 μM cpd as strong as | 1 μM cpd as strong as 12 mM MSG |
| COc1ccc(CNC(=O)C(=O)NCCc2ccccn2)c(OC)c1 [Example 123, N-(2,4-Dimethoxy-benzyl)-N′-(2-pyridin-2-yl-ethyl)-oxalamide] | 90 | – | – | 12 mM MSG + 1 μM cpd as strong as | 1 μM cpd as strong as 12 mM MSG |
| COc1cc(C)ccc1CNC(=O)C(=O)NCCc1ccc(C)cn1 [Example 157, N^1-(2-methoxy-4-methylbenzyl)-N^2-(2-(5-methylpyridin-2-yl)ethyl)oxalamide] | 30 | 133.5 to 134 | – | 12 mM MSG + 0.3 μM cpd as strong | 0.3 μM cpd as strong as 12 mM MSG |
| O=C(Nc1ccc2c(c1)OCO2)N1Cc2ccccc2C1 [Example 174, N-(3,4-methylenedioxyphenyl)isoindoline-2-carboxamide] | – | 165 to 166 | 1050 | – | – |

The next lines start with results.

| EC50 [1] [nM] | melting point [°C] | EC50 [3] [nM] | Structure (SMILES) | Taste Data: concentration of cpd that with 12 mM MSG is as strong as 12 mM MSG + 100 μM IMP [2] | Taste Data: concentration of cpd (alone) as strong as 12 mM MSG [2] |
| --- | --- | --- | --- | --- | --- |
| 200 | – | – | COC[C@@H](CC(C)C)NC(=O)c1ccc(C)c(C)c1 [Example 71, (R)-N-(1-methoxy-4-methylpentan-2-yl)-3,4-dimethylbenzamide] | 12 mM MSG + 3 μM cpd as strong as | – |
| 240 | – | – | COC[C@@H](CC(C)C)NC(=O)c1ccc(OC)c(C)c1 [Example 104, 4-Methoxy-N-(1-methoxymethyl-3-methyl-butyl)-3-methyl-benzamide] | 12 mM MSG + 3 μM cpd as strong as | – |
| 40 | 128 to 131 | – | COc1cc(C)ccc1CNC(=O)C(=O)NCCc1ccccn1 [Example 132, N-(2-methoxy-4-methylbenzyl)-N′-(2-(pyridin-2-yl)ethyl)oxalamide] | 12 mM MSG + 1 μM cpd as strong as | 1 μM cpd as strong as 12 mM MSG |
| – | 111 to 113 | 850 | COc1ccc2c(c1)CCC[C@H]2NC(=O)c1cccc(Cl)c1O [Example 183, (R)-3-Chloro-2-hydroxy-N-(6-methoxy-1,2,3,4-tetrahydronaphthalen-1-yl)benzamide] | – | – |
